# Test results as given in patent publication US20250205157A1, “TOPICAL RUXOLITINIB FOAM” (Incyte Corporation, priority 2023, published 2025).
# Assays:
# [1] = Chemical stability of foam formulations by HPLC (assay % LC, total impurities); assay type: physicochemical; conditions: for chemical stability, in words: to 3 months, 25° C./60% RH and 40° C./75% RH
# Source text: The protocol used for determining the purity was a liquid chromatography (LC) method. The LC method is provided below.
# This method is for the determination of Ruxolitinib Phosphate in foam formulations that contain Ruxolitinib Phosphate as active pharmaceutical ingredient (API). The method is suitable for the determination of active content in stability screening samples. The method can also be used to estimate the level of major degradants of Ruxolitinib Phosphate.
# Foam formulations contain about 0.5% Ruxolitinib base (API added as Ruxolitinib Phosphate)
# Weigh accurately about 500 mg of sample into a tared 25 mL volumetric flask.
# Equilibrate the chromatographic system with starting mobile phase composition until a stable baseline is obtained. The following gradient (Table 12) at a flow rate of 1.0-1.5 mL/min is used: […]
# Using the instrument conditions, equilibrate the chromatographic system with mobile phase. Record the chromatograms of Ruxolitinib Phosphate peak for the standard and sample solutions. The retention time of principal peak in the HPLC chromatogram of the sample should correspond with the retention time of the principal peak produced by Ruxolitinib Phosphate Standard Solution. The retention time difference between sample and standard should not be more than 5%.
# [2] = Minipig plasma concentrations / toxicokinetic evaluation after topical foam; conditions: topical application of foam formulations
# alopecia = conditions: 8 mg and 12 mg BID orally; cited from earlier work
# [3] = Microscopic examination of the foam samples (drug recrystallisation); assay type: physicochemical
# [4] = Solubility of ruxolitinib phosphate in organic media; assay type: physicochemical; conditions: for Reported Solubility % w/w, ruxolitinib phosphate: ambient temperature
# Method: Under pre-formulation studies, the solubility of ruxolitinib phosphate was evaluated in organic media over the course of three days at ambient temperature.
# [5] = Solubility of ruxolitinib phosphate in ethanol-water solutions and hydroethanolic foamable carrier components; assay type: physicochemical
# Method: Based on the good solubility of ruxolitinib phosphate in hydroethanolic mixtures, the solubility of ruxolitinib phosphate in a hydroethanolic base formulation was studied. Utilizing Method A (Materials and Methods), the formulations in Table 23 were prepared. […] PG was added as a penetration enhancer to facilitate better skin permeation of the API from application of the foam.
# [6] = 1,3-Dimethyl-2-Imadolidinone (DMI) (neat)
# [7] = Isopropyl Myristate (IPM) (neat)
structure (smiles),measurement,setting,value
"[2H]C1([2H])C([C@@H](CC#N)n2cc(-c3ncnc4[nH]ccc34)cn2)C([2H])([2H])C([2H])([2H])C1([2H])[2H] [Deuruxolitinib, (3R)-3-(2,2,3,3,4,4,5,5-D8) cyclopentyl-3-[4-(7H-pyrrolo[2,3-d]pyrimidin-4-yl)-1H-pyrazol-1-yl]propanenitrile]",impurities,"[1]; 3-months, 25° C. and 40° C., method detection limit",< 0.05 % area
same,"chemical stability, in words",[1],chemically stable
same,systemic exposure (plasma concentrations),[2],did not indicate therapeutic relevant concentrations
same,clinical endpoint,alopecia,met the clinical endpoint
same,drug recrystallisation / solubility in the foam,[3],remained soluble in the foam formulation
N#CC[C@H](C1CCCC1)n1cc(-c2ncnc3[nH]ccc23)cn1 [Ruxolitinib phosphate],"Calculated Solubility, % w/w in base form",[4]; [6],0.168 % w/w
same,"Reported Solubility % w/w, ruxolitinib phosphate",[4]; [6],0.22 % w/w
same,"Calculated Solubility, % w/w in base form",[4]; Castor Oil (neat),0.028 % w/w
same,"Reported Solubility % w/w, ruxolitinib phosphate",[4]; Castor Oil (neat),0.037 % w/w
same,"Calculated Solubility, % w/w in base form",[4]; DIPA (neat),<0.01 % w/w
same,"Reported Solubility % w/w, ruxolitinib phosphate",[4]; DIPA (neat),<0.01 % w/w
same,"Calculated Solubility, % w/w in base form",[4]; Ethyl Oleate (neat),<0.01 % w/w
same,"Reported Solubility % w/w, ruxolitinib phosphate",[4]; Ethyl Oleate (neat),<0.01 % w/w
same,"Calculated Solubility, % w/w in base form",[4]; Etocas 35 (neat),0.729 % w/w
same,"Reported Solubility % w/w, ruxolitinib phosphate",[4]; Etocas 35 (neat),0.962 % w/w
same,"Calculated Solubility, % w/w in base form",[4]; GTCC (neat),0.015 % w/w
same,"Reported Solubility % w/w, ruxolitinib phosphate",[4]; GTCC (neat),0.02 % w/w
same,"Calculated Solubility, % w/w in base form",[4]; [7],<0.01 % w/w
same,"Reported Solubility % w/w, ruxolitinib phosphate",[4]; [7],<0.01 % w/w
same,"Calculated Solubility, % w/w in base form",[4]; Light Mineral Oil (LMO) (neat),<0.01 % w/w
same,"Reported Solubility % w/w, ruxolitinib phosphate",[4]; Light Mineral Oil (LMO) (neat),<0.01 % w/w
same,"Calculated Solubility, % w/w in base form",[4]; Octadodecabol (ODD) (neat),0.022 % w/w
same,"Reported Solubility % w/w, ruxolitinib phosphate",[4]; Octadodecabol (ODD) (neat),0.029 % w/w
same,"Calculated Solubility, % w/w in base form",[4]; Oleth-3 (neat),0.513 % w/w
same,"Reported Solubility % w/w, ruxolitinib phosphate",[4]; Oleth-3 (neat),0.677 % w/w
same,"Calculated Solubility, % w/w in base form",[4]; Oleyl alcohol (neat),0.052 % w/w
same,"Reported Solubility % w/w, ruxolitinib phosphate","[4]; Oleyl alcohol (neat), no propellant",0.068 % w/w
same,"Calculated Solubility, % w/w in base form",[4]; PEG 300 (neat),1.169 % w/w
same,"Reported Solubility % w/w, ruxolitinib phosphate",[4]; PEG 300 (neat),1.543 % w/w
same,"Calculated Solubility, % w/w in base form",[4]; PEG400 (neat),0.846 % w/w
same,"Reported Solubility % w/w, ruxolitinib phosphate",[4]; PEG400 (neat),1.117 % w/w
same,"Calculated Solubility, % w/w in base form",[4]; Polysorabte 80 (neat),0.920 % w/w
same,"Reported Solubility % w/w, ruxolitinib phosphate",[4]; Polysorabte 80 (neat),1.214 % w/w
same,"Calculated Solubility, % w/w in base form",[4]; Polysorbate 20 (neat),0.957 % w/w
same,"Reported Solubility % w/w, ruxolitinib phosphate",[4]; Polysorbate 20 (neat),1.263 % w/w
same,"Calculated Solubility, % w/w in base form",[4]; Propylene Glycol (PG) (neat),1.651 % w/w
same,"Reported Solubility % w/w, ruxolitinib phosphate",[4]; Propylene Glycol (PG) (neat),2.179 % w/w
same,"Calculated Solubility, % w/w in base form",[4]; Span 20 (neat),0.877 % w/w
same,"Reported Solubility % w/w, ruxolitinib phosphate",[4]; Span 20 (neat),1.157 % w/w
same,"Calculated Solubility, % w/w in base form",[4]; Transcutol-P (neat),0.927 % w/w
same,"Reported Solubility % w/w, ruxolitinib phosphate",[4]; Transcutol-P (neat),1.223 % w/w
same,amount dissolved in hydroethanolic base,[5]; base having 60% ethanol with and without additional propylene glycol,approximately 3 % (w/w) on a free base basis
same,solubility (loading level) in ethanol:water,[5]; mixtures of 60:40 or 40:60 ethanol:water,~4 % on a free base basis (w/w)
N#CC[C@H](C1CCCC1)n1cc(-c2ncnc3[nH]ccc23)cn1 [Ruxolitinib],"chemical stability, in words",[1],chemically stable
same,systemic exposure (plasma concentrations),[2],did not indicate therapeutic relevant concentrations
